Source: patent publication US20240398828A1, “HETERO-ATOM CONTAINING COMPOUNDS AND USES THEREOF” (Kumquat Biosciences Inc., priority 2021, published 2024)

Tests used:
PTPN2 (i.e., TC-PTP) = target: T1, PTPN2 (i.e., TC-PTP) (Homo sapiens, UniProt P17706); test: Phosphatase activity assay (DiFMUP substrate), PTPN2; type: biochemical; conditions: compounds binned ≤1 uM or >1 uM
T1 sequence (P17706 1-415): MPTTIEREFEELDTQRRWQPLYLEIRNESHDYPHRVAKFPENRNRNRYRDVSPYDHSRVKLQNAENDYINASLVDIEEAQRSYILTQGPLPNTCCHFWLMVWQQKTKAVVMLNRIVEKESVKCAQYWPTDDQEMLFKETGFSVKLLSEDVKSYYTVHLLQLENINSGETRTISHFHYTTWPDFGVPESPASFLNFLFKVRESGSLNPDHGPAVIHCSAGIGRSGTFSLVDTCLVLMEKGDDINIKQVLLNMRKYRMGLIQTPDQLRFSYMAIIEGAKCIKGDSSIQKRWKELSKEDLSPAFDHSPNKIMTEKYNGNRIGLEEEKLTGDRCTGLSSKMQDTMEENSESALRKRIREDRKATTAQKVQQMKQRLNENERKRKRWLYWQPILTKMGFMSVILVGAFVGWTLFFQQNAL
Experimental: (§1) The selectivity and potency of a small molecule PTPN2 inhibitor as provided herein against one or more protein tyrosine phosphatase (PTP) enzymes, and specifically against PTPN2, is assessed in various ways. The one or more PTP enzymes comprise Mycobacterium protein tyrosine phosphatase A (mPTPA), Mycobacterium protein tyrosine phosphatase B (mPTPB), PTPN1 (i.e., PTP1B), PTPN2 (i.e., TC-PTP), PTPN22 (i.e., LYP), SHP-1, SHP-2, FAP-1, Meg2, HePTP, Laforin, VHX, VHR, LMWPTP, Cdc14A, LAR, CD45, PTPRG, a fragment thereof, a variant thereof, and a combination thereof. Selectivity and potency of a small molecule PTPN2 inhibitor is evaluated using a PTP activity inhibition assay. The assay is performed using a buffer comprising 50 mM HEPES buffer pH 7.5, 150 mM NaCl, 0.5 mM EDTA, 1 mM DTT, 0.001% Tween-20.
(§2) The assay is performed using a phosphated substrate, e.g., 10 mM 6,8-Difluoro-4-Methylumbelliferyl Phosphate (DIFMUP) that is stored at −20° C. Alternatively or in addition to, the assay is performed using other phosphated substrate (e.g., fluorescein diphosphate). Each PTP enzyme is diluted in the assay buffer
(§3) The assay can be carried out at room temperature in multiplate format, e.g., using 384 well plates. A small molecule PTPN2 inhibitor dissolved in DMSO at one of 10 concentrations from a serial dilution or DMSO alone for control is added to each well. A mixture of the assay buffer comprising PTP enzyme (e.g., 0.025 ng/ul PTPN2) is added to each well and mixed for approximately 2 minutes. The reaction is initiated by adding DiFMUP diluted in the assay buffer to a final concentration of approximately 45 μM DiFMUP in PTPN2 assay. For each PTP enzyme, DiFMUP is added at the Km (Michaelis constant) of the enzyme that had been independently determined. The phosphatase activity of the PTP enzyme is assessed by monitoring appearance of a fluorescent product (6,8-difluoro-7-hydroxyl-4-coumarin (DiFMU) from DiFMUP) continuously for about 15 to 30 minutes, using the INFINITE M1000Pro plate reader (Tecan) with excitation at 360 nm and emission at 450 nm (cutoff filter at 435 nm) for DiFMU. Each assay is performed at least in duplicate. The rate (e.g., the initial rate) of DiFMU formation is plotted against the concentration of the small molecule PTPN2 inhibitor, and the data is fitted (e.g., using a 4-parameter equation) to determine the inflection point of the fit as the IC50 of the small molecule PTPN2 inhibitor for a specific enzyme. Utilizing this assay, the ability of the compounds in Table 2 to inhibit PTPN2 and PTP1B has been assessed. Table 3 summarizes the IC50 values.

PTPN1 (i.e., PTP1B) = target: T2, PTPN1 (i.e., PTP1B) (Homo sapiens, UniProt P18031); test: Phosphatase activity assay (DiFMUP substrate), PTP1B; type: biochemical; conditions: compounds binned ≤1 uM or >1 uM
T2 sequence (P18031 1-435): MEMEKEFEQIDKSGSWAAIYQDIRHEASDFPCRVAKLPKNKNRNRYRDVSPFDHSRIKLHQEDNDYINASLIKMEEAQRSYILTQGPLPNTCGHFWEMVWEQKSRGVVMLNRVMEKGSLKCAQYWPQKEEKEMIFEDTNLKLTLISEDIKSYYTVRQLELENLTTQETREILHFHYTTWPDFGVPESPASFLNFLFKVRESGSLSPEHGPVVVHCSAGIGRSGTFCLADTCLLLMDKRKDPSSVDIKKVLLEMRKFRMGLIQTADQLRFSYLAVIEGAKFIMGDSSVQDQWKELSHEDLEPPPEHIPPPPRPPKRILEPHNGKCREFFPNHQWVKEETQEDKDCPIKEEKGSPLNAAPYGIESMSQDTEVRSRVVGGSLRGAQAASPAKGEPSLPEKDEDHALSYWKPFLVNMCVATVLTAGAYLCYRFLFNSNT
Experimental: as §1, §2, §3

Row | Compound | IC50 (PTPN2 (i.e., TC-PTP)) [nM] | IC50 (PTPN1 (i.e., PTP1B)) [nM]
1 | Cc1ncc(-c2ccc(O)c(N3CC(=O)NS3(=O)=O)c2F)o1 [Compound 101, 5-(2-fluoro-6-hydroxy-3-(2-methyloxazol-5-yl)phenyl)-1,2,5-thiadiazolidin-3-one 1,1-dioxide] | ≤ 1000 | ≤ 1000
2 | O=C1CN(c2c(O)ccc(-c3cnn(-c4cccnc4)c3)c2F)S(=O)(=O)N1 [Compound 102, 5-(2-fluoro-6-hydroxy-3-(1-(pyridin-3-yl)-1H-pyrazol-4-yl)phenyl)-1,2,5-thiadiazolidin-3-one 1,1-dioxide] | ≤ 1000 | ≤ 1000
3 | Cc1csc(-c2ccc(O)c(N3CC(=O)NS3(=O)=O)c2F)c1 [Compound 103, 5-(2-fluoro-6-hydroxy-3-(4-methylthiophen-2-yl)phenyl)-1,2,5-thiadiazolidin-3-one 1,1-dioxide] | ≤ 1000 | ≤ 1000
4 | CC(C)CCNC1CCCN(c2cc(O)c(N3CC(=O)NS3(=O)=O)c(F)c2)C1 (stereo not drawn) [Compound 104, 5-(2-fluoro-6-hydroxy-4-(3-(isopentylamino)piperidin-1-yl)phenyl)-1,2,5-thiadiazolidin-3-one 1,1-dioxide] | ≤ 1000 | ≤ 1000
5 | COc1ccc(-c2cnc(O)nc2)c(F)c1N1CC(=O)NS1(=O)=O [Compound 105, 5-(2-fluoro-3-(2-hydroxypyrimidin-5-yl)-6-methoxyphenyl)-1,2,5-thiadiazolidin-3-one 1,1-dioxide] | > 1000 | > 1000
6 | Cn1cc(-c2ccc(O)c(N3CC(=O)NS3(=O)=O)c2F)ccc1=O [Compound 106, 5-(2-fluoro-6-hydroxy-3-(1-methyl-6-oxo-1,6-dihydropyridin-3-yl)phenyl)-1,2,5-thiadiazolidin-3-one 1,1-dioxide] | ≤ 1000 | ≤ 1000
7 | COc1cc(-c2ccc(O)c(N3CC(=O)NS3(=O)=O)c2F)ccn1 [Compound 107, 5-(2-fluoro-6-hydroxy-3-(2-methoxypyridin-4-yl)phenyl)-1,2,5-thiadiazolidin-3-one 1,1-dioxide] | ≤ 1000 | ≤ 1000
8 | CC(C)n1cc(-c2ccc(O)c(N3CC(=O)NS3(=O)=O)c2F)cn1 [Compound 108, 5-(2-fluoro-6-hydroxy-3-(1-isopropyl-1H-pyrazol-4-yl)phenyl)-1,2,5-thiadiazolidin-3-one 1,1-dioxide] | ≤ 1000 | ≤ 1000
9 | CN1CCc2cc(-c3ccc(O)c(N4CC(=O)NS4(=O)=O)c3F)ccc2C1 [Compound 109, 5-(2-fluoro-6-hydroxy-3-(2-methyl-1,2,3,4-tetrahydroisoquinolin-6-yl)phenyl)-1,2,5-thiadiazolidin-3-one 1,1-dioxide] | ≤ 1000 | ≤ 1000
10 | Cn1cc(-c2ccc(O)c(N3CC(=O)NS3(=O)=O)c2F)c(F)n1 [Compound 110, 5-(2-fluoro-3-(3-fluoro-1-methyl-1H-pyrazol-4-yl)-6-hydroxyphenyl)-1,2,5-thiadiazolidin-3-one 1,1-dioxide] | ≤ 1000 | ≤ 1000
11 | O=C1CN(c2c(O)ccc(-c3cnn(Cc4cncc(F)c4)c3)c2F)S(=O)(=O)N1 [Compound 111, 5-(2-fluoro-3-(1-((5-fluoropyridin-3-yl)methyl)-1H-pyrazol-4-yl)-6-hydroxyphenyl)-1,2,5-thiadiazolidin-3-one 1,1-dioxide] | ≤ 1000 | ≤ 1000
12 | Cn1ncc2cc(-c3ccc(O)c(N4CC(=O)NS4(=O)=O)c3F)ccc21 [Compound 112, 5-(2-fluoro-6-hydroxy-3-(1-methyl-1H-indazol-5-yl)phenyl)-1,2,5-thiadiazolidin-3-one 1,1-dioxide] | ≤ 1000 | ≤ 1000
13 | O=C1CN(c2c(O)ccc(-c3cnn(Cc4cc(F)cc(F)c4)c3)c2F)S(=O)(=O)N1 [Compound 113, 5-(3-(1-(3,5-difluorobenzyl)-1H-pyrazol-4-yl)-2-fluoro-6-hydroxyphenyl)-1,2,5-thiadiazolidin-3-one 1,1-dioxide] | ≤ 1000 | ≤ 1000
14 | O=C1CN(c2c(O)ccc(-c3ccc4[nH]ncc4c3)c2F)S(=O)(=O)N1 [Compound 114, 5-(2-fluoro-6-hydroxy-3-(1H-indazol-5-yl)phenyl)-1,2,5-thiadiazolidin-3-one 1,1-dioxide] | ≤ 1000 | ≤ 1000
15 | Cn1cnc(-c2ccc(O)c(N3CC(=O)NS3(=O)=O)c2F)c1 [Compound 115] | ≤ 1000 | ≤ 1000
16 | Cn1ccc(-c2ccc(F)c(N3CC(=O)NS3(=O)=O)c2F)c1 [Compound 116, 5-(2,6-difluoro-3-(1-methyl-1H-pyrrol-3-yl)phenyl)-1,2,5-thiadiazolidin-3-one 1,1-dioxide] | > 1000 | > 1000
17 | O=C1CN(c2c(O)ccc(-c3ccc(N4CCCC4)cc3)c2F)S(=O)(=O)N1 [Compound 117, 5-(2-fluoro-4-hydroxy-4′-(pyrrolidin-1-yl)-[1,1′-biphenyl]-3-yl)-1,2,5-thiadiazolidin-3-one 1,1-dioxide] | ≤ 1000 | ≤ 1000
18 | COc1ncc(-c2ccc(O)c(N3CC(=O)NS3(=O)=O)c2F)cn1 [Compound 118, 5-(2-fluoro-6-hydroxy-3-(2-methoxypyrimidin-5-yl)phenyl)-1,2,5-thiadiazolidin-3-one 1,1-dioxide] | ≤ 1000 | ≤ 1000
19 | Cc1c(-c2cnn(CCC(C)C)c2)ccc(O)c1N1CC(=O)NS1(=O)=O [Compound 119, 5-(6-hydroxy-3-(1-isopentyl-1H-pyrazol-4-yl)-2-methylphenyl)-1,2,5-thiadiazolidin-3-one 1,1-dioxide] | ≤ 1000 | ≤ 1000
20 | O=C1CN(c2c(O)ccc(-c3ccc(-c4ccccc4)nc3)c2F)S(=O)(=O)N1 [Compound 120, 5-(2-fluoro-6-hydroxy-3-(6-phenylpyridin-3-yl)phenyl)-1,2,5-thiadiazolidin-3-one 1,1-dioxide] | ≤ 1000 | ≤ 1000
21 | O=C1CN(c2c(O)ccc(-c3nnc(-c4ccccc4)o3)c2F)S(=O)(=O)N1 [Compound 121, 5-(2-fluoro-6-hydroxy-3-(5-phenyl-1,3,4-oxadiazol-2-yl)phenyl)-1,2,5-thiadiazolidin-3-one 1,1-dioxide] | > 1000 | > 1000
22 | O=C1CN(c2c(O)ccc(-c3cccc(N4CCCC4)c3)c2F)S(=O)(=O)N1 [Compound 122, 5-(2-fluoro-4-hydroxy-3′-(pyrrolidin-1-yl)-[1,1′-biphenyl]-3-yl)-1,2,5-thiadiazolidin-3-one 1,1-dioxide] | ≤ 1000 | ≤ 1000
23 | CC(C1CCCCC1)n1cnc(-c2ccc(O)c(N3CC(=O)NS3(=O)=O)c2F)c1 (stereo not drawn) [Compound 413, 5-(3-(1-(1-cyclohexylethyl)-1H-imidazol-4-yl)-2-fluoro-6-hydroxyphenyl)-1,2,5-thiadiazolidin-3-one 1,1-dioxide] | > 1000 | –
